Experiment: xn = mol fraction of the nth substance listed
Conditions: Liquid; for speed of sound: 100 kPa, Linear variable-path acoustic interferometer; for viscosity / mass density: 101.3 kPa; for viscosity: Capillary tube (Ostwald / Ubbelohde) method; for mass density: Pycnometric method

NC=O [formamide] + CC#N
Conditions | mass density, 298.15 K [kg/m3] | mass density, 308.15 K [kg/m3] | mass density, 318.15 K [kg/m3] | speed of sound, 298.15 K [m/s] | viscosity, 298.15 K [mPa·s] | viscosity, 308.15 K [mPa·s] | viscosity, 318.15 K [mPa·s]
x1 = 0.0919 | 803.8 | 794.9 | 785.6 | 1277.7 | 0.402 | 0.366 | 0.339
x1 = 0.1856 | 832.8 | 824.1 | 815.8 | 1299.6 | 0.485 | 0.432 | 0.396
x1 = 0.2809 | 863.4 | 855.1 | 847.4 | 1322.8 | 0.593 | 0.522 | 0.472
x1 = 0.3779 | 895.8 | 887.4 | 879.9 | 1349.6 | 0.733 | 0.635 | 0.565
x1 = 0.4768 | 929.2 | 921.2 | 914 | 1380.8 | 0.921 | 0.786 | 0.687
x1 = 0.5775 | 965.2 | 956.6 | 950.7 | 1412.8 | 1.168 | 0.978 | 0.847
x1 = 0.6802 | 1002.9 | 994.4 | 989.4 | 1449 | 1.507 | 1.239 | 1.046
x1 = 0.7847 | 1042.6 | 1034.7 | 1029.3 | 1488.8 | 1.945 | 1.569 | 1.295
x1 = 0.8913 | 1085.1 | 1076.9 | 1071.6 | 1529.8 | 2.54 | 1.999 | 1.615
x1 = 1 | 1129.2 | 1120.5 | 1111.1 | 1591.3 | 3.302 | 2.542 | 2.001

NC=O [formamide] + COCCO
Conditions | mass density, 298.15 K [kg/m3] | mass density, 308.15 K [kg/m3] | mass density, 318.15 K [kg/m3] | speed of sound, 298.15 K [m/s] | viscosity, 298.15 K [mPa·s] | viscosity, 308.15 K [mPa·s] | viscosity, 318.15 K [mPa·s]
x1 = 0.1581 | 977 | 969.1 | 963.5 | 1353.6 | 1.912 | 1.515 | 1.225
x1 = 0.2969 | 994.2 | 986.2 | 980.3 | 1373.7 | 2.291 | 1.759 | 1.394
x1 = 0.4199 | 1010.9 | 1002.8 | 996.5 | 1397.5 | 2.659 | 1.997 | 1.561
x1 = 0.5297 | 1027.6 | 1019.4 | 1012.8 | 1423.8 | 2.963 | 2.206 | 1.709
x1 = 0.6282 | 1044.1 | 1035.9 | 1029.1 | 1451.1 | 3.173 | 2.367 | 1.831
x1 = 0.7171 | 1060.2 | 1052.3 | 1045.3 | 1478.3 | 3.331 | 2.485 | 1.929
x1 = 0.7977 | 1076.7 | 1068.7 | 1061.5 | 1506 | 3.395 | 2.541 | 1.978
x1 = 0.8711 | 1093.8 | 1085.7 | 1078.1 | 1533.9 | 3.399 | 2.562 | 2.016
x1 = 0.9383 | 1111.1 | 1102.9 | 1094.6 | 1564.3 | 3.348 | 2.55 | 2.003
x1 = 1 | 1129.2 | 1120.5 | 1111.1 | 1591.3 | 3.302 | 2.542 | 2.001

NC=O [formamide] + C[S+](C)[O-]
Conditions | mass density, 298.15 K [kg/m3] | mass density, 308.15 K [kg/m3] | mass density, 318.15 K [kg/m3] | speed of sound, 298.15 K [m/s] | viscosity, 298.15 K [mPa·s] | viscosity, 308.15 K [mPa·s] | viscosity, 318.15 K [mPa·s]
x1 = 0.1616 | 1099.3 | 1090.7 | 1082.7 | 1480.1 | 2.457 | 1.859 | 1.64
x1 = 0.3025 | 1102.8 | 1094.9 | 1087.3 | 1480.6 | 2.868 | 2.135 | 1.823
x1 = 0.4264 | 1106.3 | 1098.5 | 1090.9 | 1483.9 | 3.214 | 2.365 | 1.968
x1 = 0.5363 | 1109.5 | 1101.6 | 1093.9 | 1492.3 | 3.468 | 2.52 | 2.059
x1 = 0.6343 | 1112.6 | 1104.6 | 1096.7 | 1502.9 | 3.608 | 2.621 | 2.112
x1 = 0.7224 | 1115.8 | 1107.6 | 1099.5 | 1512.7 | 3.652 | 2.653 | 2.118
x1 = 0.8019 | 1119.1 | 1110.7 | 1102.3 | 1526.4 | 3.626 | 2.639 | 2.083
x1 = 0.874 | 1122.5 | 1113.9 | 1105.3 | 1543.7 | 3.54 | 2.613 | 2.054
x1 = 0.9398 | 1125.8 | 1117.2 | 1108.2 | 1561.2 | 3.426 | 2.571 | 2.021
x1 = 1 | 1129.2 | 1120.5 | 1111.1 | 1591.3 | 3.302 | 2.542 | 2.001
